What is called EC50 is the concentration giving half of the maximal effect.

The values that follow come from article PMC5716539, “The acute glucose lowering effect of specific GPR120 activation in mice is mainly driven by glucagon-like peptide 1” (PLoS ONE, 2017).

Data set [1] addresses T1, human GPR120 (Homo sapiens, UniProt Q5NUL3).
T1 construct: expressed in transfected cells
T1 sequence (Q5NUL3 1-361): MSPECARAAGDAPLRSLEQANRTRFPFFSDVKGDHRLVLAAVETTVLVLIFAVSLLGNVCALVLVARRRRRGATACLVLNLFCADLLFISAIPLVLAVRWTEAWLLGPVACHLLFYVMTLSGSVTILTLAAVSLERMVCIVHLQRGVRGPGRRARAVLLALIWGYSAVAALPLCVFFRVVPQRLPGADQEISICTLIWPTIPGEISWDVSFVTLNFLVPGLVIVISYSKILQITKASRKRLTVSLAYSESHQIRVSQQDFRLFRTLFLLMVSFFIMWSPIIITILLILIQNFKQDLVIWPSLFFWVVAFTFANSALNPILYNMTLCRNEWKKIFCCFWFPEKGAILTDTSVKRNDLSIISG
The experiment in a line: Calcium mobilization assay in CHO-hGPR120 cells. The note with it: for Calcium mobilization after Gαq inhibition: CHO-hGPR120 cells pre-treated with 1 μM QIC; for EC50: CHO-hGPR120 cells, mean ± SEM. Format: cell-based. The protocol:
CHO-hGPR120 and CHO cells were cultured in DMEM/F-12 (Invitrogen) with 10% FBS (Sigma) and HEK293-mGPR40 in DMEM (Invitrogen) supplemented with 10% FBS in 384-well poly-D-Lysin coated microplates (Greiner) at 37°C, 95% humidity and 5% CO2. After 19 hours cell media was replaced with Calcium4 dye (Molecular Devices) in HBSS (Invitrogen), 20 mM HEPES (Invitrogen), pH 7.4 and 1.25 mM Probenecid (Sigma). After 1 hour at room temperature agonists were added and calcium mobilization was detected as change in fluorescence (λex = 488 and λem = 540 nm) using a FLIPR^TETRA (Molecular Devices).
(Calcium flux is commonly read through the fluorescence of an indicator in the cells.)

In data set [2] the target is T1, human GPR120. As to the kind of experiment: cAMP assay in CHO-hGPR120 cells. The following applies: cAMP production in CHO-hGPR120 cells; mean ± SEM. Format: cell-based. The protocol:
CHO-hGPR120 or CHO cells in HBSS (Invitrogen), 20 mM HEPES (Invitrogen), pH 7.4, 0.01% BSA, 1.5 mM 3-isobutyl-1-methylxanthine (Sigma) and d2-labeled cAMP (CisBio) were incubated with GPR120 agonists (1% DMSO) for 45 min at room temperature in white small-volume 384-well plates (Greiner). The reaction was terminated by addition of conjugate and lysis buffer (CisBio) supplemented with anti-cAMP Cryptate (CisBio).
A general note: cAMP levels reflect the balance of adenylyl cyclase and phosphodiesterase activity.

A further data set has as its system control CHO cells. The experiment in a line: DMR assay in control CHO cells. The data set is classed as cell-based, Chinese hamster. The note with it: control CHO cells (empty vector). The procedure:
DMR (dynamic mass redistribution) was measured by resonant waveguide grating (RWG) using an Epic biosensor (Corning). CHO-hGPR120, CHO-mGPR120 and CHO cells in DMEM/F-12 (Invitrogen) were cultured in fibronectin coated 384-well Epic plates (Corning) at 37°C, 95% humidity and 5% CO2 for 5 hours with 10% FBS (Sigma), followed by 19 hours without FBS. CHO-hGPR40 cells were cultured at 37°C, 95% humidity and 5% CO2 for 20–24 hours in Ham’s F-12 Nutrient Mix with GlutaMAX (Invitrogen) supplemented with Non-Essential Amino Acids (Gibco) and 10% FBS (Sigma) in fibronectin coated 384-well Epic plates (Corning). Following the incubations culture media was replaced with HBSS (Invitrogen), 20 mM HEPES (Invitrogen), pH 7.4 and 1% DMSO and equilibrated to 26°C in the Epic for thirty min before addition of agonists and detection of DMR.

The test system of data set [3] is islets from GPR120 null mice. The experiment in a line: cAMP production in dispersed islet cells from GPR120 null mice. The data set is classed as cell-based, mouse. The note with it: 10 μM agonist. The procedure: Mouse islets were isolated from pancreas by collagenase digestion, handpicked under microscope following multiple washing steps and dispersed to single cells using TrypLE Express (Gibco). The dispersed islet cells (20 000 cells/well) were incubated with the GPR120 agonists for 30 min in 96-well black plates (Corning) at 37°C in Krebs ringer phosphate Hepes buffer, pH 7.4, with 11 mM Glucose, 0.1% BSA and 0.5 mM 3-isobutyl-1-methylxanthine followed by addition of d2-labeled cAMP and anti-cAMP Cryptate in conjugation and lysis buffer (Cisbio). Produced cAMP was detected with homogenous time resolved fluorescence (HTRF) (λex = 340 nm, λem = 665 and 615 nm) using a Pherastar (BMG Labtech).

A further data set relates to lean male mice. As to the kind of experiment: Oral glucose tolerance test (OGTT) in lean male mice. Format: in vivo, mouse. The note with it: for Glucose excursions following oral glucose administration: oral dosing, different doses, glucose 2 g/kg, vs vehicle; for Dose at which significantly improved glucose tolerance was observed: oral, OGTT lean male mice; for Calculated unbound effective concentration, Ce50: unbound concentration giving 50% decrease in blood glucose over time vs vehicle, turnover model. The procedure:
OGTT tests were performed in lean male mice (body weight 27-32g), randomized on body weight, fasted for 16 hours. An oral glucose load (2 g/kg) was administered 30 min (AZ13581837, 7 and 18 mg/kg) or 60 min (Metabolex-36, 10, 30 and 100 mg/kg) after oral dosing with the GPR120 agonists and blood glucose was measured at -30, 0, 10, 25, 40, 60 and 90 min post glucose administration. The specificity of Metabolex-36 was examined in male GPR120 null mice. The administration time for the GPR120 agonists was optimized depending on the pharmacokinetic profile of each compound, in order to maximize the plasma exposure of the compounds during the experiments.
For OGTT a turnover model with a log-linear drug function was used to model the glucose lowering effect determined as the effective concentration resulting in a 50% decrease in blood glucose over time (Ce50) compared to vehicle. All analyses were performed using Phoenix WinNonlin 6.4 (Certara, Princeton, NJ, USA). The area under the glucose excursion curve was calculated and used for statistical evaluation.

The next data set concerns lean mice. As to the kind of experiment: Plasma total GLP-1 levels after oral administration in mice. Format: in vivo, mouse. The note with it: 30 min after AZ13581837 or 60 min after Metabolex-36, oral, vs respective control group. The procedure:
In separate experiments, mice were pretreated with the GLP-1 receptor antagonist exendin 9–39 (30 nmol/kg, Bachem; intraperitoneally) alone or in combination with the GPR120 agonists, 15 min prior to the IVGTT. Insulin and glucose were measured 0, 1, 5, 10, 20 and 40 min after intravenous (iv) glucose administration. In separate groups of mice total GLP-1 levels were measured 60 min after oral administration of Metabolex-36 or 30 min after AZ13581837 and in corresponding vehicle (0.5% HPMC, 0.1% Tween-80) dosed mice. Blood samples were collected in EDTA coated tubes, centrifuged at 10000xg for 4 min, and plasma was separated and stored frozen until analyzed.
Glucose was measured using a glucometer (AccuCheck, Bayer). Circulating hormones were measured using specific ELISA kits; insulin (ultra-sensitive mouse insulin, Crystal Chemistry), and total and active GLP-1 (Millipore).

Data set [4] in a line: Pharmacokinetic properties. Format: in vivo, mice. The following applies: insufficient for chronic treatment.

As for “3-(3,5-difluoro-4-((3-methyl-1-phenyl-1H-pyrazol-5-yl)methoxy)phenyl)-2-methylpropanoic acid [Metabolex-36]”, on human GPR120 [1], the “Calcium mobilization after Gαq inhibition” value is given as “completely abolished” and the EC50 amounted to 1800 ± 190 nM. The same compound showed an EC50 at human GPR120 [2] of 6700 ± 1000 nM. In addition, the “DMR response in control CHO cells” value in the data set with control CHO cells is listed as “without activity”. The “cAMP production in islets from GPR120 null mice” value in data set [3] was “no effect”. In the data set on lean male mice, the “Glucose excursions following oral glucose administration” value is “concentration dependent reduction”; the “Dose at which significantly improved glucose tolerance was observed” value is recorded as 30 mg/kg; the “Calculated unbound effective concentration, Ce50” value was 0.6 µM. The “Total GLP-1 levels” value in the data set on lean mice is listed as “significant increase”. The “Pharmacokinetic properties (half-life)” value in data set [4] is “short half-life”.
Take `C#Cc1cc(Oc2cccnc2)cc(N2Cc3ccccc3S2(=O)=O)c1` [AZ13581837, 2-(3-ethynyl-5-(3-pyridyloxy)phenyl)-3H-1,2-benzothiazole 1,1-dioxide]: on human GPR120 [1], the “Calcium mobilization after Gαq inhibition” value is “completely abolished” and the EC50 is 120 ± 20 nM. On human GPR120 [2], the 50% effective concentration (EC50) came out at 60 ± 7 nM. The “DMR response in control CHO cells” value with control CHO cells was “without activity”. For the same compound, the “cAMP production in islets from GPR120 null mice” value in data set [3] is “no effect”. In addition, in the data set on lean male mice, the “Glucose excursions following oral glucose administration” value was “concentration dependent reduction”; the “Dose at which significantly improved glucose tolerance was observed” value was 18 mg/kg; the “Calculated unbound effective concentration, Ce50” value was 0.02 µM. Moreover, the “Total GLP-1 levels” value with lean mice was “significant increase”. The “Pharmacokinetic properties (half-life)” value in data set [4] is “short half-life”.
